Test results reported in ChEMBL document CHEMBL3627697, “Aminopyrazolo[1,5-a]pyrimidines as potential inhibitors of Mycobacterium tuberculosis: Structure activity relationships and ADME characterization” (Bioorg Med Chem, 2015).
Converted amounts (≈) assume the structure as drawn.

How the values were obtained:
[1] = Kinetic solubility of the compound at pH 7.4 after 2 hrs by shake flask method-based HPLC-DAD analysis; type: physicochemical; conditions: buffer, read-out: Kinetic_solubility
[2] = test system: Mycobacterium tuberculosis; test: Antimycobacterial activity against Mycobacterium tuberculosis H37Rv in GAST-Fe medium measured at day 14 by Alamar Blue assay; type: functional; conditions: 336 h
[3] = test system: Mycobacterium tuberculosis; test: Antimycobacterial activity against Mycobacterium tuberculosis H37Rv in 7H9/ADC/Tween medium measured at day 14 by Alamar Blue assay; type: functional; conditions: 336 h
[4] = test system: CHO; test: Cytotoxicity against CHO cells assessed as cell viability by MTT assay; type: cell-based; conditions: Cricetulus griseus
[5] = test system: Mycobacterium tuberculosis; test: Antimycobacterial activity against Mycobacterium tuberculosis H37Rv in GAST medium with low Fe level measured at day 14 by Alamar Blue assay; type: functional; conditions: 336 h
[6] = Metabolic stability in mouse liver microsomes assessed as compound remaining at 0.1 uM measured at 30 mins by LC-MS/MS analysis; type: ADME; conditions: read-out: Stability
[7] = Metabolic stability in rat liver microsomes assessed as compound remaining at 0.1 uM measured at 30 mins by LC-MS/MS analysis; type: ADME; conditions: read-out: Stability
[8] = Metabolic stability in human liver microsomes assessed as compound remaining at 0.1 uM measured at 30 mins by LC-MS/MS analysis; type: ADME; conditions: read-out: Stability

Compound	solubility kinetic at 2 h [1]	MIC99 [2]	MIC99 [3]	IC50 [4]	MIC99 [5]	remaining at 0.5 h, 0.1 µM [6]	remaining at 0.5 h, 0.1 µM [7]	remaining at 0.5 h, 0.1 µM [8]
Cc1cc(NCc2ccccn2)n2ncc(-c3ccccc3F)c2n1	5 µM (≈ 1.67 µg/mL)	> 160 µM	2.5 µM (≈ 0.833 µg/mL)	5.45 µM	> 160 µM			
Cc1cc(NCc2ccccn2)n2ncc(-c3ccc(F)c(Cl)c3)c2n1	< 5 µM	> 160 µM	1.25 µM (≈ 0.46 µg/mL)	20 µM	> 160 µM			
Cc1cc(NCc2ccccn2)n2ncc(-c3ccccc3C)c2n1	< 5 µM		1.25 µM (≈ 0.412 µg/mL)					
Cc1cc(NCc2ccccn2)n2ncc(-c3c(C)cccc3C)c2n1	< 5 µM		> 160 µM					
Cc1cc(NCc2ccccn2)n2ncc(-c3ccc(F)cc3F)c2n1	< 5 µM		> 160 µM					
Cc1cc(NCc2ccccn2)n2ncc(-c3cc(F)c(F)c(F)c3)c2n1	< 5 µM		2.5 µM (≈ 0.923 µg/mL)					
Cc1cc(NCc2ccccn2)n2ncc(-c3ccco3)c2n1	48.8 µM (≈ 14.9 µg/mL)		40 µM (≈ 12.2 µg/mL)					
Cc1cc(NCc2ccccn2)n2ncc(-c3ccsc3)c2n1	9 µM (≈ 2.89 µg/mL)		20 µM (≈ 6.43 µg/mL)					
Cc1cc(NCc2ccccn2)n2ncc(-c3ccncc3)c2n1	161 µM (≈ 51 µg/mL)		> 160 µM					
Cc1cc(NCc2ccccn2)n2ncc(-c3ccn(C)n3)c2n1	188 µM (≈ 60 µg/mL)		> 160 µM					
Cc1cc(NCc2ccccn2)n2ncc(-c3ccc(C(=O)Nc4ccccc4)cc3)c2n1	5 µM (≈ 2.17 µg/mL)		> 160 µM					
Cc1cc(NCc2ccccn2)n2nc(C)c(Nc3ccccc3)c2n1	7.8 µM (≈ 2.69 µg/mL)		40 µM (≈ 13.8 µg/mL)					
Cc1cc(NCc2ccccn2)n2ncc(C3=CCC(F)(F)CC3)c2n1	5 µM (≈ 1.78 µg/mL)		5 µM (≈ 1.78 µg/mL)					
Cc1cc(NCc2ccccn2)n2ncc(C3=CCOCC3)c2n1	171 µM (≈ 54.9 µg/mL)		80 µM (≈ 25.7 µg/mL)					
Cc1cc(NCc2ccccn2)n2ncc(Br)c2n1	89.3 µM (≈ 28.4 µg/mL)		> 160 µM					
Cc1cc(NCc2ccccn2)n2nc(C)cc2n1	> 200 µM		5 µM (≈ 1.27 µg/mL)					

Compound	solubility kinetic at 2 h [1]	MIC99 [2]	MIC99 [3]	IC50 [4]	MIC99 [5]	remaining at 0.5 h, 0.1 µM [6]	remaining at 0.5 h, 0.1 µM [7]	remaining at 0.5 h, 0.1 µM [8]
Cc1cc(NCC2CCCCN2)n2nc(C)c(-c3ccccc3)c2n1 (configuration not stated)	189 µM (≈ 63.3 µg/mL)		> 160 µM			14%	5.1%	51.8%
CCN1CCCC1CNc1cc(C)nc2c(-c3ccccc3)c(C)nn12 (configuration not stated)	172 µM (≈ 60.1 µg/mL)		> 160 µM					54%
Cc1cc(NCc2ccc(F)cn2)n2nc(C)c(-c3ccccc3)c2n1	< 5 µM	20 µM (≈ 6.95 µg/mL)	5 µM (≈ 1.74 µg/mL)	22 µM	> 160 µM	5.3%	45.5%	31.4%
Cc1cc(NCc2cccc[n+]2[O-])n2ncc(-c3ccccc3)c2n1	159 µM (≈ 52.7 µg/mL)		> 160 µM			12.3%	61.2%	99.7%
Cc1cc(NCc2nccn2C)n2nc(C)cc2n1	182 µM (≈ 46.7 µg/mL)		> 160 µM			85.1%	80.6%	100%
Cc1cc(NCc2ncnn2C)n2nc(C)c(-c3ccccc3)c2n1	185 µM (≈ 61.6 µg/mL)		> 160 µM			18.9%	68.8%	99.5%
Cc1cc(NCc2ccccn2)n2ncc(-c3ccc(O)cc3)c2n1	10.9 µM (≈ 3.61 µg/mL)		> 160 µM			41.4%	60.1%	99.3%
Cc1cc(NCc2ccccn2)n2ncc(-c3cccc(N)c3)c2n1	160 µM (≈ 52.8 µg/mL)		> 160 µM			55.1%	56.8%	89.5%
Cc1cc(NCc2ccccn2)n2ncc(-c3cccc(N(C)C)c3)c2n1	94.6 µM (≈ 33.9 µg/mL)		80 µM (≈ 28.7 µg/mL)			7.9%	4.5%	33.7%
Cc1cc(NCc2ccccn2)n2ncc(-c3cncnc3)c2n1	111 µM (≈ 35.2 µg/mL)		160 µM (≈ 50.8 µg/mL)					
Cc1cc(NCc2ccccn2)n2ncc(-c3ccc(C(=O)NCCN(C)C)cc3)c2n1	189 µM (≈ 81.3 µg/mL)		> 160 µM					
Cc1cc(NCc2ccccn2)n2nc(C)c(-c3cccnc3F)c2n1	< 5 µM		10 µM (≈ 3.48 µg/mL)			100%	96.5%	100%
Cc1cc(NCc2ccccn2)n2ncc(-c3ccc(F)cc3C)c2n1	42.3 µM (≈ 14.7 µg/mL)		> 160 µM					
NC[C@H]1O[C@H](O[C@H]2[C@H](O)[C@@H](O[C@H]3O[C@H](CO)[C@@H](O)[C@H](N)[C@H]3O)[C@H](N)C[C@@H]2N)[C@H](O)[C@@H](O)[C@@H]1O [KANAMYCIN]			6.45 µM (≈ 3.13 µg/mL)					
CO[C@H]1/C=C/O[C@@]2(C)Oc3c(C)c(O)c4c(O)c(c(/C=N/N5CCN(C)CC5)c(O)c4c3C2=O)NC(=O)/C(C)=C\C=C\[C@H](C)[C@H](O)[C@@H](C)[C@@H](O)[C@@H](C)[C@H](OC(C)=O)[C@@H]1C [RIFAMPIN]			0.012 µM (≈ 0.00988 µg/mL)					
